Test results as given in ChEMBL document CHEMBL3880415, “Spiro (Piperidine-4,2''-Pyrrolidine)-1-(3,5-Trifluoromethyl Phenyl) Methylcarboxamides As NK1 Tachikynin Receptor Antagonists” (2011).

Target: Substance-P receptor (Homo sapiens, UniProt P25103)
Assay: Antagonist at human NK1 receptor expressed in recombinant BacMam virus infected human U2OS cells assessed as inhibition of substance P-induced intracellular calcium release preincubated for 30 mins followed by substance P addition by Fluo-4 calcium dye-based FLIPR assay
Assay type: functional, cell-based

Chain of Substance-P receptor (P25103 whole entry): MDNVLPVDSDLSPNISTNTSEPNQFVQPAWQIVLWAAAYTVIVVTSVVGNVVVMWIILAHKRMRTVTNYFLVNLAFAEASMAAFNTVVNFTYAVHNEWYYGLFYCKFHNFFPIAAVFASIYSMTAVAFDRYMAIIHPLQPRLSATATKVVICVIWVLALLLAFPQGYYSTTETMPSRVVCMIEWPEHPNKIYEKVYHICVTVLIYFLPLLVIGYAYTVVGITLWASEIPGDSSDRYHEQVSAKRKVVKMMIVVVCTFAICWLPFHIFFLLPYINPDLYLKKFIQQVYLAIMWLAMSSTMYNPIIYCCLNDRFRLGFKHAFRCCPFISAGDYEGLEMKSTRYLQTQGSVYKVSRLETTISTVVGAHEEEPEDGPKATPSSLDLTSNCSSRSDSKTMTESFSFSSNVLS

Compound | Ki | pKi (u2os)
Cc1cc(F)ccc1[C@H]1C[C@]2(CC[C@H](C(N)=O)N2)CCN1C(=O)N(C)[C@H](C)c1cc(C(F)(F)F)cc(C(F)(F)F)c1 | < 1 nM | 
Cc1cc(F)ccc1[C@H]1C[C@]2(CC[C@H](C(N)=O)N2)CCN1C(=O)N(C)Cc1cc(C(F)(F)F)cc(C(F)(F)F)c1 | < 1 nM | 
Cc1cc(F)ccc1[C@H]1C[C@@]2(CCC(C(N)=O)N2)CCN1C(=O)N(C)[C@H](C)c1cc(C(F)(F)F)cc(C(F)(F)F)c1 (stereo not given in full) |  | > 9
Cc1cc(F)ccc1[C@H]1C[C@]2(CC[C@@H](C(N)=O)N2)CCN1C(=O)N(C)Cc1cc(C(F)(F)F)cc(C(F)(F)F)c1 | < 1 nM | 
Cc1cc(F)ccc1[C@H]1C[C@@]2(CCN1C(=O)N(C)[C@H](C)c1cc(C(F)(F)F)cc(C(F)(F)F)c1)NCC[C@@H]2C(=O)O | < 1 nM | 
Cc1cc(F)ccc1[C@H]1C[C@]2(CC[C@@H](C(N)=O)N2)CCN1C(=O)N(C)[C@@H](C)c1cc(C(F)(F)F)cc(C(F)(F)F)c1 | < 1 nM | 
Cc1cc(F)ccc1[C@H]1C[C@@]2(CCN1C(=O)N(C)[C@H](C)c1cc(C(F)(F)F)cc(C(F)(F)F)c1)CC(C(=O)O)CN2 (stereo not given in full) | < 1 nM | 

Other lines, results leading:

Ki | pKi (u2os) | Compound
< 1 nM |  | Cc1cc(F)ccc1[C@H]1C[C@]2(CC[C@H](C(N)=O)N2)CCN1C(=O)N(C)[C@@H](C)c1cc(C(F)(F)F)cc(C(F)(F)F)c1
< 1 nM |  | Cc1cc(F)ccc1[C@H]1C[C@]2(CC[C@@H](C(N)=O)N2)CCN1C(=O)N(C)[C@H](C)c1cc(C(F)(F)F)cc(C(F)(F)F)c1
< 1 nM |  | Cc1cc(F)ccc1[C@H]1C[C@]2(CCCN2)CCN1C(=O)N(C)[C@H](C)c1cc(C(F)(F)F)cc(C(F)(F)F)c1
